Measurements from patent US20040092456A1, “Methods for identifying glucose uptake modulators” (priority 2002, published 2004).

Key:
Format in all cases: cell-based, mouse
skeletal muscle = assay: Contractile function (tetanic force, relaxation) during drug exposure
Description: To ensure that this inhibition was not caused by a generalized, unspecific inhibitory effect of the drug, contractile function was tested during exposure to 2-APB.

EDL muscles [1] = assay: Insulin-mediated 2-deoxyglucose (2-DG) uptake in isolated EDL muscles; conditions: insulin 10 milliunits ml^−1
Description: (§1) Adult male mice (NMRI strain) were housed at room temperature and fed ad libitum. Animals were killed by rapid neck disarticulation and muscles removed. Extensor digitorum longus (EDL; mainly fast-twitch fibers)) and soleus (mainly slow-twitch fibers) muscles were used for measurements of 2-deoxyglucose (2-DG) uptake. Flexor digitorum brevis (FDB, mainly fast-twitch fibers) muscles were used in single fiber experiments. All procedures were approved by the local ethics committee.
(§2) 2-DG uptake was measured essentially as described elsewhere (Shashkin et al. (1995) J Biol Chem 270:25613-25618; Le Marchand-Brustel et al. (1979) J Clin Invest 64:1505-1515). Briefly, muscles were incubated at 35° C. in Krebs bicarbonate buffer containing 2 mmol 1^−1 pyruvate (no glucose) ±an antagonist of SMCE, either 2-APB, a relatively specific inhibitor of SMCE that appears to act directly on SMCE channels (Braun et al. (2001) J Biol Chem 276:1063-1070; Broad et al. (2001) J Biol Chem 276:15945-15952), or MDL, another inhibitor of SMCE with different modes of action as compared to 2-APB (van Rossum et al. (2000) J Biol Chem 275:28562-28568). In other experiments muscles were incubated in 2,5-di(tert-butyl)-1,4-benzohydroquinone (TBQ), an inhibitor of SR Ca^2+ uptake (Westerblad et al. (1994) J Physiol 474:291-301). In some experiments insulin was added (10 milliunits ml^−1) after the initial 30 min incubation period. After an additional 30 min, 2-DG (1 mmol 1^−1; 1 mCi mmol^−1) and inulin (0.2 μCi per ml medium) were added. Muscles were blotted and frozen in liquid nitrogen 20 min after addition of 2-DG. Muscles were then weighed, digested in NaOH at 70° C., cooled and centrifuged, and aliquots of the supernatants were added to scintillation cocktail and counted for ^3H (2-DG) and ^14C (inulin).
In some experiments on EDL muscles, 2-DG glucose uptake was measured after 2-APB removal in the continued presence of insulin. After the initial 30 min incubation period, insulin (10 milliunits ml^−1) was added and remained in the solution for the rest of the experiment. After an additional 30 min, 2-APB (100 μM) was added. […] Control muscles were treated in the same way except that 2-APB was never added.

EDL muscles [2] = assay: Basal 2-DG uptake (no insulin) in isolated EDL muscles; conditions: for Basal rate of 2-DG uptake, EDL: 2-APB 0.1 mmol 1^−1, MDL 300 μmol 1^−1, TBQ 500 nmol 1^−1, mean ± SEM (n)
Description: as §1, §2

soleus muscles [3] = assay: Insulin-mediated 2-deoxyglucose (2-DG) uptake in isolated soleus muscles; conditions: insulin 10 milliunits ml^−1
Description: as §1, §2

soleus muscles [4] = assay: Basal 2-DG uptake (no insulin) in isolated soleus muscles; conditions: for Basal rate of 2-DG uptake, Soleus: MDL 300 μmol 1^−1, TBQ 500 nmol 1^−1, mean ± SEM (n)
Description: as §1, §2

single FDB muscle fibers = assay: Free myoplasmic [Ca2+]i measured with indo-1 in single FDB muscle fibers; conditions: global [Ca^2+]i, 75±13 before, n=4
Description: as §1
Experiments on single FDB muscle fibers were performed at 24° C. […] ([Ca^2+]i) was measured with the fluorescent Ca^2+ indicator indo-1 (Andrade et al. (1998) J Physiol 509:565-575). An indirect measure of SMCE was obtained by measuring the rate of Mn^2+ entry and quenching of the fluorescence intensity of fura-2 (Hopfet al. (1996) J Biol Chem 271:22358-22367). MnCl2 (100 μmol 1^−1) was added to the bath solution and the fura-2 injected muscle fiber was excited at 360±5 nm (the isosbestic wavelength of fiira-2 under our experimental conditions) while measuring the fluorescence light emitted at 495±5 nm. The rate of Mn^2+ quenching was measured during periods where the rate of decrease of the fluorescent light was stable, i.e. ignoring transient changes induced by changes of the bath solution. […]

[5] = test system: store-mediated Ca^2+ entry (SMCE); assay: Rate of Mn2+ quenching of fura-2 fluorescence in single FDB muscle fibers (indirect measure of SMCE)
Description: as §1
Experiments on single FDB muscle fibers were performed at 24° C. The isolated fiber was mounted in a stimulation chamber and continuously superfused by standard Tyrode solution (Lännergren et al. (1987) J Physiol 390:285-293). The free myoplasmic [Ca^2+] ([Ca^2+]i) was measured with the fluorescent Ca^2+ indicator indo-1 (Andrade et al. (1998) J Physiol 509:565-575). An indirect measure of SMCE was obtained by measuring the rate of Mn^2+ entry and quenching of the fluorescence intensity of fura-2 (Hopfet al. (1996) J Biol Chem 271:22358-22367). MnCl2 (100 μmol 1^−1) was added to the bath solution and the fura-2 injected muscle fiber was excited at 360±5 nm (the isosbestic wavelength of fiira-2 under our experimental conditions) while measuring the fluorescence light emitted at 495±5 nm. The rate of Mn^2+ quenching was measured during periods where the rate of decrease of the fluorescent light was stable, i.e. ignoring transient changes induced by changes of the bath solution. Measurements were not performed until 2 min after application of insulin, thus allowing time for insulin to act.

c1ccc([C@H]2CCC[C@H]2NC2=NCCCCCCCCCCC2)cc1 (relative stereo) [MDL, cis-N-(2-phenylcyclopentyl)azacyclotridec-1-en-2-amine]
Reversibility of the force reduction on washout (skeletal muscle; 100 μmol 1^−1 MDL): not reversed on washout | Reduction of tetanic force (skeletal muscle; 100 μmol 1^−1 MDL, 30 min of exposure, n=4): 22±2% | Effect on insulin-mediated 2-DG uptake, EDL (in words) (EDL muscles [1]): decreased insulin-mediated 2-DG uptake in a dose-dependent manner | Effect on basal 2-DG uptake, EDL (in words) (EDL muscles [2]): not significantly affected | Basal rate of 2-DG uptake, EDL (EDL muscles [2]): 42 ± 3 (4) μmol 1^−1 min^−1 | Effect on insulin-mediated 2-DG uptake, soleus (in words) (soleus muscles [3]): decreased insulin-mediated 2-DG uptake in a dose-dependent manner | Effect on basal 2-DG uptake, soleus (in words) (soleus muscles [4]): not significantly affected | Basal rate of 2-DG uptake, Soleus (soleus muscles [4]): 42 ± 4 (4) μmol 1^−1 min^−1

CC(C)(C)c1cc(O)c(C(C)(C)C)cc1O [TBQ, 2,5-di(tert-butyl)-1,4-benzohydroquinone]
Increase of tetanic force (skeletal muscle; 2-APB 100 μmol 1^−1, 30 min (n=5), TBQ 500 nmol 1^−1 (n=4)): 4±2% | Relaxation speed (in words) (skeletal muscle; 2-APB 100 μmol 1^−1, 30 min, TBQ 500 nmol 1^−1): slight slowing of relaxation | Insulin-mediated 2-DG uptake, EDL (EDL muscles [1]; 100 nmol 1^−1 TBQ, n=6): 93±5 μmol 1^−1 min^−1 | Insulin-mediated 2-DG uptake, EDL (EDL muscles [1]; 500 nmol 1^−1 TBQ, n=4): 103±4 μmol 1^−1 min^−1 | Effect on insulin-mediated 2-DG uptake, EDL (in words) (EDL muscles [1]): no effect | Effect on basal 2-DG uptake, EDL (in words) (EDL muscles [2]): no significant effect | Basal rate of 2-DG uptake, EDL (EDL muscles [2]): 37 ± 6 (4) μmol 1^−1 min^−1 | Insulin-mediated 2-DG uptake, soleus (soleus muscles [3]; 100 nmol 1^−1 TBQ, n=6): 150±7 μmol 1^−1 min^−1 | Insulin-mediated 2-DG uptake, soleus (soleus muscles [3]; 500 nmol 1^−1 TBQ, n=4): 179±8 μmol 1^−1 min^−1 | Effect on insulin-mediated 2-DG uptake, soleus (in words) (soleus muscles [3]): no effect | Effect on basal 2-DG uptake, soleus (in words) (soleus muscles [4]): no significant effect | Basal rate of 2-DG uptake, Soleus (soleus muscles [4]): 63 ± 5 (4) μmol 1^−1 min^−1

insulin
[Ca^2+]i after application of insulin (single FDB muscle fibers): 74±13 nmol 1^−1 | Increase in the rate of Mn^2+ quenching on addition of insulin ([5]; 0 mmol 1^−1 glucose, n=5): about 10% | Insulin-induced change of the rate of Mn^2+ quenching (in words) ([5]; 5.5 mmol 1^−1 glucose, mean data, n=6): no significant insulin-induced change | Recovery of the 2-APB-induced decrease of quenching rate by insulin ([5]; insulin 10 mU ml^−1 in continued presence of 2-APB 100 μmol 1^−1): about half
